Experimental data taken from US11932640B1, “Pyrrolo[3,4-b]quinoline compounds as antibacterial agents” (KING FAISAL UNIVERSITY, priority 2023, dated 2024).
Converted amounts (≈) assume the structure as drawn. Where two headings read alike, the source gives them in different places.

Columns and labels:
[1] = tested on: Escherichia coli MTCC 443; assay: Antibacterial MIC, CLSI M07-A10 dilution; format: cell-based; conditions: MTCC443
[2] = tested on: Enterococcus faecium ATCC 51559 (VRE resistant); assay: Antibacterial MIC, CLSI M07-A10 dilution; format: cell-based
[3] = tested on: Klebsiella pneumonia MTCC 618; assay: Antibacterial MIC, CLSI M07-A10 dilution; format: cell-based; conditions: Klebsiella pneumoniae, MTCC618
[4] = tested on: Pseudomonas aeruginosa MTCC 741; assay: Antibacterial MIC, CLSI M07-A10 dilution; format: cell-based; conditions: MTCC741
[5] = tested on: Mycobacterium tuberculosis H37Rv strain; assay: Anti-tubercular alamar blue microplate MIC; format: cell-based; conditions: 168 h, M. tuberculosis H37Rv, 7 days at 37° C., read-out: anti-mycobacterial activity (MIC)
[6] = tested on: Staphylococcus aureus ATCC 29213; assay: Antibacterial MIC, CLSI M07-A10 dilution; format: cell-based; conditions: ATCC29213
[7] = tested on: Staphylococcus epidermidis; assay: Antibacterial MIC, CLSI M07-A10 dilution; format: cell-based
DNA gyrase from E. coli = biological target: T1, DNA gyrase from E. coli (Escherichia coli, UniProt P0AES4+P0AES6); assay: E. coli DNA gyrase inhibition (Inspiralis assay); format: biochemical
T1 construct: purchased Inspiralis
T1 sequence (P0AES4 whole entry, one chain of several): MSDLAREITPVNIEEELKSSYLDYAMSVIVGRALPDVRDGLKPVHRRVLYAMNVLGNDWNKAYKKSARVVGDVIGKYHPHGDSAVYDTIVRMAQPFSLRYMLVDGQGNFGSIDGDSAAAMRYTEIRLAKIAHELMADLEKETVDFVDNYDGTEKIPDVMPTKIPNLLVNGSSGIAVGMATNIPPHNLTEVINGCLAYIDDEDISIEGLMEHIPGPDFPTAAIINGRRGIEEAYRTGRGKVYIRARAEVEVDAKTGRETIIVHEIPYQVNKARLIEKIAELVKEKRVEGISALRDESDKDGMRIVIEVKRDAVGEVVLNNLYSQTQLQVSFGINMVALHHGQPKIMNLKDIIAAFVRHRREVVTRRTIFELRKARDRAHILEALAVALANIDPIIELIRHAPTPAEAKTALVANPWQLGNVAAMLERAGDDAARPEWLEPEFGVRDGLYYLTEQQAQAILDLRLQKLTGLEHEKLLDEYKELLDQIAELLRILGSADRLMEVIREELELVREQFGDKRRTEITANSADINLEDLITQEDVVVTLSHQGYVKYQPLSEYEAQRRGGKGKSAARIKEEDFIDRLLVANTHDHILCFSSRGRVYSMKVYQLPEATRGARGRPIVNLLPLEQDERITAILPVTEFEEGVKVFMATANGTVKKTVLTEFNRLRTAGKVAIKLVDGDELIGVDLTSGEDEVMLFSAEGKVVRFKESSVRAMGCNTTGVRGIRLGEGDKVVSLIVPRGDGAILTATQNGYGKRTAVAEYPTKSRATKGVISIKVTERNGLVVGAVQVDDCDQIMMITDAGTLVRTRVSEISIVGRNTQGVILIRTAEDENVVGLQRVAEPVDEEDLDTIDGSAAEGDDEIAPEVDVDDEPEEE
Description: Inhibitory potencies were investigated utilizing the Inspiralis assay on streptavidin-coated 96-well microtiter plates. First, the plates were rehydrated with buffer (20 mM Tris-HCl with pH 7.6, 0.01% w/v BSA, 0.05% v/v Tween 20, 137 mM NaCl) and the biotinylated oligonucleotide was then immobilized. After washing off the unbound oligonucleotide, the enzyme test was performed. […] Reaction solutions were incubated at 37° C. for 30 min. After that, the TF buffer (50 mM NaOAc with pH 5.0, 50 mM NaCl and 50 mM MgCl2) was added to terminate the enzymatic reaction. […] The fluorescence was measured with a microplate reader (BioTek Synergy H4, excitation: 485 nm, emission: 535 nm). Initial screening was done at 100 or 10 μM concentration of inhibitors. […] GraphPad Prism software was used to calculate the IC50 values. The result is given as the average value of three independent measurements.

[8] = tested on: Bacillus subtilis MTCC 441; assay: Antibacterial MIC, CLSI M07-A10 dilution; format: cell-based; conditions: MTCC441
[9] = tested on: Staphylococcus aureus ATCC BAA-1556 (MERSA resistant); assay: Antibacterial MIC, CLSI M07-A10 dilution; format: cell-based; conditions: ATCCBAA1556
[10] = tested on: Enterococcus faecium ATCC 35667; assay: Antibacterial MIC, CLSI M07-A10 dilution; format: cell-based; conditions: ATCC35667

## CCCCCN(C)Cc1cc(C(=O)O)ccc1N1C(=O)c2nc3c(NC)cc(F)cc3c(O)c2C1=O [Compound 12, 4-(7-fluoro-9-hydroxy-5-(methylamino)-1,3-dioxo-1,3-dihydro-2H-pyrrolo[3,4-b]quinolin-2-yl)-3-((methyl(pentyl)amino)methyl)benzoic acid]
[1]
  MIC: 4 mg/L (≈ 8.09 µM)
[2]
  MIC: 0.75 mg/L (≈ 1.52 µM)
[3]; Klebsiella pneumonia MTCC 618, read-out: MIC
  MIC: 1 mg/L (≈ 2.02 µM)
[4]
  MIC: 1 mg/L (≈ 2.02 µM)
[5]
  MIC: 4 mg/L (≈ 8.09 µM)
[6]
  MIC: 1 mg/L (≈ 2.02 µM)
[7]
  MIC: 0.75 mg/L (≈ 1.52 µM)
DNA gyrase from E. coli
  IC50: 0.016 µM
[8]
  MIC: 0.5 mg/L (≈ 1.01 µM)
[9]
  MIC: 2 mg/L (≈ 4.04 µM)
[10]
  MIC: 0.5 mg/L (≈ 1.01 µM)

## CN[C@H](CC(C)C)C(=O)N[C@H]1C(=O)N[C@@H](CC(N)=O)C(=O)N[C@H]2C(=O)N[C@H]3C(=O)N[C@H](C(=O)N[C@H](C(=O)O)c4cc(O)cc(O)c4-c4cc3ccc4O)[C@H](O)c3ccc(c(Cl)c3)Oc3cc2cc(c3O[C@@H]2O[C@H](CO)[C@@H](O)[C@H](O)[C@H]2O[C@H]2C[C@](C)(N)[C@H](O)[C@H](C)O2)Oc2ccc(cc2Cl)[C@H]1O [Vancomycin, reference compound]
[3]
  MIC: > 128 mg/L
